In PubChem BioAssay AID2060512 (Molecular Pharmacology Branch, DTP, NCI, 2025):
Each block holds one compound with its values, some of them ahead of it.

System: 186277-243-T-J2-PDC complex spheroid viability
Assay: Anticancer human tumor 186277-243-T-J2-PDC patient-derived colon adenocarcinoma cell line growth inhibition [GQUAD]
Details: for IC50: curve of first compound; for viability, T/C: stronger effect = lower value
Outline: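 Viability of tumor cells grown as complex spheroids with endothelial and stromal cells, exposed to drug combinations. Top concentration at or near clinical Cmax (else 10 microM), diluted in half-log increments.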

[1] = second compound 0.0316 µM, first compound 0.0316 µM
[2] = second compound 0.0316 µM, first compound 0.1 µM
[3] = second compound 0.0316 µM, first compound 0.316 µM
[4] = second compound 0.0316 µM, first compound 1 µM
[5] = second compound 0.0316 µM, first compound 3.16 µM
[6] = second compound 0.0316 µM, first compound 10 µM
[7] = second compound 0.1 µM, first compound 0.0316 µM
[8] = second compound 0.1 µM, first compound 0.1 µM
[9] = second compound 0.1 µM, first compound 0.316 µM
[10] = second compound 0.1 µM, first compound 1 µM
[11] = second compound 0.1 µM, first compound 3.16 µM
[12] = second compound 0.1 µM, first compound 10 µM
[13] = second compound 0.316 µM, first compound 0.0316 µM
[14] = second compound 0.316 µM, first compound 0.1 µM
[15] = second compound 0.316 µM, first compound 0.316 µM
[16] = second compound 0.316 µM, first compound 1 µM
[17] = second compound 0.316 µM, first compound 3.16 µM
[18] = second compound 0.316 µM, first compound 10 µM
[19] = second compound 1 µM, first compound 0.0316 µM
[20] = second compound 1 µM, first compound 0.1 µM
[21] = second compound 1 µM, first compound 0.316 µM
[22] = second compound 1 µM, first compound 1 µM
[23] = second compound 1 µM, first compound 3.16 µM
[24] = second compound 1 µM, first compound 10 µM
[25] = second compound 3.16 µM, first compound 0.0316 µM
[26] = second compound 3.16 µM, first compound 0.1 µM
[27] = second compound 3.16 µM, first compound 0.316 µM
[28] = second compound 3.16 µM, first compound 1 µM
[29] = second compound 3.16 µM, first compound 3.16 µM
[30] = second compound 3.16 µM, first compound 10 µM
[31] = second compound 10 µM, first compound 0.0316 µM
[32] = second compound 10 µM, first compound 0.1 µM
[33] = second compound 10 µM, first compound 0.316 µM
[34] = second compound 10 µM, first compound 1 µM
[35] = second compound 10 µM, first compound 3.16 µM
[36] = second compound 10 µM, first compound 10 µM
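Wherever viability, T/C is given: 100% = DMSO vehicle control viability.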

SMILES: C#Cc1c(F)ccc2cc(O)cc(-c3ncc4c(N5CC6CCC(C5)N6)nc(OCC56CCCN5CC(F)C6)nc4c3F)c12 (stereo unspecified) + Cc1[nH]c2ccc(F)cc2c1-c1nc2c3cccnc3c3ncccc3c2[nH]1
IC50 (second compound 0.0316 µM): 74.3 nM
IC50 (second compound 0.1 µM): 85.4 nM
IC50 (second compound 0.316 µM): 64.1 nM
IC50 (second compound 1 µM): 61.3 nM
IC50 (second compound 3.16 µM): 51.7 nM
IC50 (second compound 10 µM): < 31.6 nM
viability, T/C [1]: 94.1%
viability, T/C [2]: 34.5%
viability, T/C [3]: 14.3%
viability, T/C [4]: 7.64%
viability, T/C [5]: 7.24%
viability, T/C [6]: 5.55%
viability, T/C [7]: 106%
viability, T/C [8]: 41.1%
viability, T/C [9]: 14.2%
viability, T/C [10]: 8.6%
viability, T/C [11]: 7.78%
viability, T/C [12]: 5.66%
viability, T/C [13]: 78.1%
viability, T/C [14]: 30.7%
viability, T/C [15]: 18.1%
viability, T/C [16]: 7.67%
viability, T/C [17]: 7.43%
viability, T/C [18]: 3.69%
viability, T/C [19]: 68.6%
viability, T/C [20]: 36%
viability, T/C [21]: 17.7%
viability, T/C [22]: 7.93%
viability, T/C [23]: 6.21%
viability, T/C [24]: 5.18%
viability, T/C [25]: 56%
viability, T/C [26]: 42.3%
viability, T/C [27]: 19.2%
viability, T/C [28]: 10.7%
viability, T/C [29]: 5.86%
viability, T/C [30]: 3.99%
viability, T/C [31]: 47.4%
viability, T/C [32]: 38.2%
viability, T/C [33]: 16.8%
viability, T/C [34]: 7.64%
viability, T/C [35]: 7.32%
viability, T/C [36]: 2.6%

SMILES: CC(=O)O[C@H]1C(=O)[C@@]2(C)[C@H]([C@H](OC(=O)c3ccccc3)[C@]3(O)C[C@H](OC(=O)[C@H](O)[C@@H](NC(=O)c4ccccc4)c4ccccc4)C(C)=C1C3(C)C)[C@]1(OC(C)=O)CO[C@@H]1C[C@@H]2O + Cc1[nH]c2ccc(F)cc2c1-c1nc2c3cccnc3c3ncccc3c2[nH]1
IC50 (second compound 0.0316 µM): < 31.6 nM
IC50 (second compound 0.1 µM): < 31.6 nM
IC50 (second compound 0.316 µM): < 31.6 nM
IC50 (second compound 1 µM): < 31.6 nM
IC50 (second compound 3.16 µM): < 31.6 nM
IC50 (second compound 10 µM): < 31.6 nM
viability, T/C [1]: 15.7%
viability, T/C [2]: 4.95%
viability, T/C [3]: 6.22%
viability, T/C [4]: 4.92%
viability, T/C [5]: 4.75%
viability, T/C [6]: 4.49%
viability, T/C [7]: 15%
viability, T/C [8]: 5.55%
viability, T/C [9]: 4.93%
viability, T/C [10]: 4.7%
viability, T/C [11]: 4.6%
viability, T/C [12]: 4.6%
viability, T/C [13]: 15.1%
viability, T/C [14]: 5.62%
viability, T/C [15]: 4.72%
viability, T/C [16]: 4.93%
viability, T/C [17]: 5.02%
viability, T/C [18]: 4.65%
viability, T/C [19]: 12%
viability, T/C [20]: 5.43%
viability, T/C [21]: 4.8%
viability, T/C [22]: 4.59%
viability, T/C [23]: 4.91%
viability, T/C [24]: 4.25%
viability, T/C [25]: 11.6%
viability, T/C [26]: 5.28%
viability, T/C [27]: 4.81%
viability, T/C [28]: 3.9%
viability, T/C [29]: 5.02%
viability, T/C [30]: 4.07%
viability, T/C [31]: 12.4%
viability, T/C [32]: 5.2%
viability, T/C [33]: 3.75%
viability, T/C [34]: 3.85%
viability, T/C [35]: 4.46%
viability, T/C [36]: 3.46%

IC50 (second compound 0.0316 µM): > 10000 nM
IC50 (second compound 0.1 µM): > 10000 nM
IC50 (second compound 0.316 µM): 3600 nM
IC50 (second compound 1 µM): 144 nM
IC50 (second compound 3.16 µM): < 31.6 nM
IC50 (second compound 10 µM): < 31.6 nM
SMILES: CC(C)n1c(=O)n(C)c2cnc3cc(F)c(-c4ccc(OCCCN5CCCCC5)nc4)cc3c21 + Cc1cnc(CNC(=O)c2c(=O)c3ccc(N4CCCN(C)CC4)nc3n3c2sc2ccccc23)cn1
viability, T/C [1]: 90.6%
viability, T/C [2]: 79.9%
viability, T/C [3]: 73.5%
viability, T/C [4]: 69.3%
viability, T/C [5]: 75%
viability, T/C [6]: 76.2%
viability, T/C [7]: 70.4%
viability, T/C [8]: 54.4%
viability, T/C [9]: 70.6%
viability, T/C [10]: 73.1%
viability, T/C [11]: 59.4%
viability, T/C [12]: 46.5%
viability, T/C [13]: 67.8%
viability, T/C [14]: 67.6%
viability, T/C [15]: 48.8%
viability, T/C [16]: 70.8%
viability, T/C [17]: 46.5%
viability, T/C [18]: 41.2%
viability, T/C [19]: 49.2%
viability, T/C [20]: 46.3%
viability, T/C [21]: 52.2%
viability, T/C [22]: 54.8%
viability, T/C [23]: 52.3%
viability, T/C [24]: 42.5%
viability, T/C [25]: 43.7%
viability, T/C [26]: 39.8%
viability, T/C [27]: 49.5%
viability, T/C [28]: 39.7%
viability, T/C [29]: 40.6%
viability, T/C [30]: 36.4%
viability, T/C [31]: 31.8%
viability, T/C [32]: 47.5%
viability, T/C [33]: 40%
viability, T/C [34]: 39.7%
viability, T/C [35]: 38.3%
viability, T/C [36]: 35.6%
